Values after ≈ are worked out from the molar mass of the structure shown. Where two headings read alike, the source gives them in different places.
Tests used:
[1] = tested on: E. coli K12+pSMART-LC-Kan-cynTS; assay type: cell-based; conditions: Escherichia coli, 24 h, read-out: Minimum inhibitory concentration (MIC) of 3-HP for E. coli K12+pSMART-LC-Kan-cynTS in M9 minimal media
Protocol: Overnight cultures of strains were grown in 5 ml LB (with antibiotic where appropriate) at 37° C. in a shaking incubator. A 1 v/v % was used to inoculate 10 mL of M9 minimal media. After the cells reached mid-exponential phase, the culture was diluted to an OD600 of 0.200. The cells were further diluted 1:20 and a 10 ul aliquot was used to inoculate each well (˜10^4 cells per well). […] The MIC endpoint is the lowest concentration of compound at which there was no visible growth.
Purified plasmid was retransformed into E. coli K12 by standard techniques and MIC measured as described in Example 37.

[2] = tested on: Yeast strains (S288C background); test: microbe, parasite or virus in culture; assay type: cell-based, Saccharomyces cerevisiae; conditions: for MIC: Saccharomyces cerevisiae
Protocol: The minimum inhibitory concentration (MIC) was determined aerobically in a 96 well-plate format. […] Media supplements were added according to levels reported in the Supplements Table, where specified. Overnight cultures of strains were grown in triplicate in 5 mL SD media with vitamins (Methods in Enzymology vol. 350, page 17 (2002)). A 1% (v/v) inoculum was introduced into a 5 ml culture of SD minimal media without vitamins. After the cells reached mid-exponential phase, the culture was diluted to an OD600 of 0.200. The cells were further diluted 1:5 and a 10 μL aliquot was used to inoculate each well of a 96 well plate (˜10^4 cells per well) to total volume of 100 uL. […] Plates were incubated for 72 hours at 30 C.

E. coli = test: microbe, parasite or virus in culture; assay type: cell-based; conditions: for % Increase Over Control: anaerobic; for MIC: Escherichia coli
Protocol: For MIC evaluations, the final results are expressed in chemical agent concentrations determined by analysis of the stock solution by HPLC (i.e., see Subsection IIIb).
The minimum inhibitory concentration (MIC) was determined anaerobically in a 96 well-plate format. […] Media supplements were added according to levels reported in the Supplements Table, where specified. Overnight cultures of strains were grown in triplicate in 5 mL LB (with antibiotic where appropriate). A 1% (v/v) inoculum was introduced into a 5 ml culture of M9 minimal media.

Structure (SMILES): O=C(O)CCO [3-HP, 3-hydroxypropionic acid]
- MIC [1]: 50 mg/mL (≈ 555 mM)
- % Increase Over Control ([2]; S288C, SC media vs SD control, aerobic): 33%
- MIC ([2]; read-out: Average MIC Assay Result (g/L 3-HP), S288C, SC media, supplements none, aerobic): 60 g/L (≈ 666 mM)
- MIC ([2]; read-out: Average MIC Assay Result (g/L 3-HP), S288C, SD media, supplements none (control), aerobic): 45 g/L (≈ 500 mM)
- MIC ([2]; read-out: MIC Assay Result (g/L 3-HP), strain YX-022 (BY4722, pyes2.1-Aro3 pRS425-ILV6), SD, aerobic): 60 g/L (≈ 666 mM)
- MIC ([2]; read-out: MIC Assay Result (g/L 3-HP), strain YX-CJR-001 (BY4709, pRS426 EV, control), SD, aerobic): 40 g/L (≈ 444 mM)
- MIC ([2]; read-out: MIC Assay Result (g/L 3-HP), strain YX-CJR-002 (BY4709, pYes2.1-spe3), SD, aerobic): 50 g/L (≈ 555 mM)
- MIC ([2]; read-out: MIC Assay Result (g/L 3-HP), strain YX-CJR-003 (BY4709, pYes2.1-hom2), SD, aerobic): 47 g/L (≈ 522 mM)
- MIC ([2]; read-out: MIC Assay Result (g/L 3-HP), strain YX-CJR-005 (BY4709, pYes2.1-Met6), SD, aerobic): 50 g/L (≈ 555 mM)
- MIC ([2]; read-out: MIC Assay Result (g/L 3-HP), strain YX-CJR-006 (BY4709, pYes2.1-Ilv2), SD, aerobic): 57 g/L (≈ 633 mM)
- MIC ([2]; read-out: MIC Assay Result (g/L 3-HP), strain YX-CJR-010 (BY4709, pyes2.1-Thr1), SD, aerobic): 60 g/L (≈ 666 mM)
- MIC ([2]; read-out: MIC Assay Result (g/L 3-HP), strain YX-CJR-014 (BY4709, pyes2.1-arg2), SD, aerobic): 60 g/L (≈ 666 mM)
- MIC ([2]; read-out: MIC Assay Result (g/L 3-HP), strain YX-CJR-017 (BY4709, pyes2.1-Aro7), SD, aerobic): 70 g/L (≈ 777 mM)
- % Increase Over Control ([2]; strain YX-022 (pyes2.1-Aro3 pRS425-ILV6) vs control, aerobic): 50%
- % Increase Over Control ([2]; strain YX-CJR-002 (pYes2.1-spe3) vs YX-CJR-001, aerobic): 25%
- % Increase Over Control ([2]; strain YX-CJR-003 (pYes2.1-hom2) vs YX-CJR-001, aerobic): 17%
- % Increase Over Control ([2]; strain YX-CJR-005 (pYes2.1-Met6) vs YX-CJR-001, aerobic): 25%
- % Increase Over Control ([2]; strain YX-CJR-006 (pYes2.1-Ilv2) vs YX-CJR-001, aerobic): 42%
- % Increase Over Control ([2]; strain YX-CJR-010 (pyes2.1-Thr1) vs YX-CJR-001, aerobic): 50%
- % Increase Over Control ([2]; strain YX-CJR-014 (pyes2.1-arg2) vs YX-CJR-001, aerobic): 50%
- % Increase Over Control ([2]; strain YX-CJR-017 (pyes2.1-Aro7) vs YX-CJR-001, aerobic): 75%
- % Increase Over Control (E. coli; BW25113, EZ Rich media vs M9 control): 150%
- MIC (E. coli; BW25113, read-out: MIC Assay Result (g/L 3-HP), BW25113, EZ Rich media, supplements none, anaerobic): 75 g/L (≈ 833 mM)
- MIC (E. coli; BW25113, read-out: MIC Assay Result (g/L 3-HP), BW25113, M9, supplements none (control), anaerobic): 30 g/L (≈ 333 mM)
- MIC (E. coli; BW25113, read-out: MIC Assay Result (g/L 3-HP), anaerobic, strain BX_00002.0: BW25113 wild type, pKK223-mcs1 (control), M9 + Amp (100 μg/mL)): 15 g/L
- MIC (E. coli; BW25113, read-out: MIC Assay Result (g/L 3-HP), anaerobic, strain BX_00003.0: BW25113 wild type, pBT-3 (control), M9 + Cm (20 μg/mL)): 15 g/L
- MIC (E. coli; BW25113, read-out: MIC Assay Result (g/L 3-HP), anaerobic, strain BX_00118.0: BW25113 wild type, pJ251 (control), M9 + Kan (20 μg/mL)): 15 g/L
- MIC (E. coli; BW25113, read-out: MIC Assay Result (g/L 3-HP), anaerobic, strain BX_00138.0: BW25113 wild type, pSmart-LC-Kan (control), M9 + Kan (20 μg/mLl)): 25 g/L
- MIC (E. coli; BW25113, read-out: MIC Assay Result (g/L 3-HP), anaerobic, strain BX_00144.0: BW25113 wild type, pSmart-HC-Amp (control), M9 + Amp (100 μg/mL)): 25 g/L
- MIC (E. coli; BW25113, read-out: MIC Assay Result (g/L 3-HP), anaerobic, strain BX_00319.0: BW25113 wild type, pK223-aroH, M9 + Amp 100 μg/mL + 1 mM IPTG): 20 g/L
- MIC (E. coli; BW25113, read-out: MIC Assay Result (g/L 3-HP), anaerobic, strain BX_00320.0: BW25113 wild type, pK223-metE C645A, M9 + Amp 100 μg/mL + 1 mM IPTG): 20 g/L
- MIC (E. coli; BW25113, read-out: MIC Assay Result (g/L 3-HP), anaerobic, strain BX_00322.0: BW25113 wild type, pJ61-speFED, M9 + Kan 20 μg/mL): 25 g/L
- MIC (E. coli; BW25113, read-out: MIC Assay Result (g/L 3-HP), anaerobic, strain BX_00323.0: BW25113 wild type, pJ61-aroG, M9 + Kan 20 μg/mL): 20 g/L
- MIC (E. coli; BW25113, read-out: MIC Assay Result (g/L 3-HP), anaerobic, strain BX_00324.0: BW25113 wild type, pJ61-thrA, M9 + Kan 20 μg/mL): 20 g/L
- MIC (E. coli; BW25113, read-out: MIC Assay Result (g/L 3-HP), anaerobic, strain BX_00325.0: BW25113 wild type, pJ61-asd, M9 + Kan 20 μg/mL): 20 g/L
- MIC (E. coli; BW25113, read-out: MIC Assay Result (g/L 3-HP), anaerobic, strain BX_00326.0: BW25113 wild type, pJ61-ilvA, M9 + Kan 20 μg/mL): 20 g/L
- MIC (E. coli; BW25113, read-out: MIC Assay Result (g/L 3-HP), anaerobic, strain BX_00327.0: BW25113 wild type, pJ61-cysM, M9 + Kan 20 μg/mL): 20 g/L
- MIC (E. coli; BW25113, read-out: MIC Assay Result (g/L 3-HP), anaerobic, strain BX_00357.0: BW25113 wild type, pKK223-aroH*445, M9 + Amp 100 μg/mL + 1 mM IPTG): 20 g/L
- MIC (E. coli; BW25113, read-out: MIC Assay Result (g/L 3-HP), anaerobic, strain BX_00358.0: BW25113 wild type, pKK223-aroH*447, M9 + Amp 100 μg/mL + 1 mM IPTG): 20 g/L
- MIC (E. coli; BW25113, read-out: MIC Assay Result (g/L 3-HP), anaerobic, strain BX_00359.0: BW25113 wild type, pKK223-aroH*457, M9 + Amp 100 μg/mL + 1 mM IPTG): 20 g/L
- MIC (E. coli; BW25113, read-out: MIC Assay Result (g/L 3-HP), anaerobic, strain BX_00360.0: BW25113 wild type, pACYC177 (Kan only)-cynTS, M9 + Kan 20 μg/mL): 20 g/L
- MIC (E. coli; BW25113, read-out: MIC Assay Result (g/L 3-HP), anaerobic, strain BX_00362.0: BW25113 wild type, pACYC177 (Kan only)-aroH, M9 + Kan 20 μg/mL + 1 mM IPTG): 20 g/L
- MIC (E. coli; BW25113, read-out: MIC Assay Result (g/L 3-HP), anaerobic, strain BX_00363.0: BW25113 wild type, pACYC177 (Kan only)-speB, M9 + Kan 20 μg/mL): 20 g/L
- MIC (E. coli; BW25113, read-out: MIC Assay Result (g/L 3-HP), anaerobic, strain BX_00364.0: BW25113 wild type, pACYC177 (Kan only)-metE, M9 + Kan 20 μg/mL + 1 mM IPTG): 20 g/L
- MIC (E. coli; BW25113, read-out: MIC Assay Result (g/L 3-HP), anaerobic, strain BX_00365.0: BW25113 wild type, pACYC177 (Kan only)-metC, M9 + Kan 20 μg/mL): 20 g/L
- MIC (E. coli; BW25113, read-out: MIC Assay Result (g/L 3-HP), anaerobic, strain BX_00368.0: BW25113 wild type, pBT-3-cynTS, M9 + Cm (20 μg/mL)): 20 g/L
- MIC (E. coli; BW25113, read-out: MIC Assay Result (g/L 3-HP), anaerobic, strain BX_00426.0: BW25113 ΔnrdR::frt, pSmart-HC-Amp-cadA, M9 + Amp (100 μg/mL)): 26.7 g/L
- % Increase Over Control (E. coli; strain BX_00311.0 (pSmart-LC-Kan-glyA-ORF)): 20%
